Experimental data published in publication PMC2747801 (European journal of pharmaceutical sciences : official …, 2009).
Read-outs that look alike come from different tables or passages of the source.

Experiments:
[1] = cited from earlier work
[2] = cited from earlier work; remark: listed apart in the source
[3] = cited from earlier work; remark: listed apart in the source
[4] = male, mouse, pH 7.4; for logPS(obs): in vivo
[5] = rat, 5-50uM self-inhibition, training set ref Summerfield et al. 2007
[6] = rat, PSC833,GF120918 ref Youdim et al. 2004
[7] = rat, Kd (nonsaturable component) ref Momma et al. 1987
[8] = rat, test set ref Gratton et al. 1997
[9] = rat, 5-50uM self-inhibition, test set ref Summerfield et al. 2007
[10] = PAMPA intrinsic permeability, ref Ruell et al. 2004
[11] = rat, not saturable ref Parepally et al. 2006
[12] = rat, Kd (nonsaturable component) ref Smith et al. 1986

Cc1ccsc1C(=CCCN1CCC[C@@H](C(=O)O)C1)c1sccc1C [tiagabine]
logPS(obs) [1, 5]: −2.46 mL/g/s

CC(C)Cc1ccc(C(C)C(=O)O)cc1 (stereo not drawn) [ibuprofen]
logPo^PAMPA ([2]; PAMPA intrinsic permeability, ref Ruell et al. 2004, Ruell et al. 2003): −2.11

COc1ccc(C(CN(C)C)C2(O)CCCCC2)cc1 (stereo not drawn) [venlafaxine]
logPS(obs) ([1]; rat, in vivo): −1.98 mL/g/s

COc1cc([C@@H]2c3cc4c(cc3[C@@H](O[C@@H]3O[C@@H]5CO[C@@H](C)O[C@H]5[C@H](O)[C@H]3O)[C@H]3COC(=O)[C@H]23)OCO4)cc(OC)c1O [etoposide]
logPo^PAMPA: −5.22 | logPS(obs) ([3]; mouse, mdr1a(−/−), footnote x ref Cisternino et al. 2003): −3.91 mL/g/s

CCN(C(C)=O)c1cccc(-c2ccnc3c(C#N)cnn23)c1 [zaleplon]
logPS(obs) ([1]; rat, in vivo): −2.25 mL/g/s

CCOC(=O)C1(c2ccccc2)CCN(C)CC1 [meperidine]
logPo^PAMPA: 0.79 | logPS(obs) ([3]; mouse, in vivo): −1.28 mL/g/s

O=c1c(O)c(-c2ccc(O)c(O)c2)oc2cc(O)cc(O)c12 [quercetin]
logPo^PAMPA: −4.77 | logPS(obs) [1, 6]: −3.50 mL/g/s

Nc1ccccc1C(=O)C[C@H](N)C(=O)O [L-kynurenine]
logPS(obs) [1, 7]: −4.16 mL/g/s

NC(N)=S [thiourea]
logPS(obs) [1, 8]: −3.36 mL/g/s

N[C@@H](Cc1ccc(N(CCCl)CCCl)cc1)C(=O)O [melphalin]
logPS(obs) ([1]; rat, in vivo): −3.28 mL/g/s

OCCN1CCN(CCCN2c3ccccc3Sc3ccc(C(F)(F)F)cc32)CC1 [fluphenazine]
logPS(obs) [1, 9]: −1.87 mL/g/s

CN(C)CCC=C1c2ccccc2COc2ccccc21 [doxepin]
logPo^PAMPA [2, 10]: 0.44 | logPS(obs) [1, 5]: −1.31 mL/g/s

CN1CCCCC1CCN1c2ccccc2Sc2ccc([S+](C)[O-])cc21 (stereo not drawn) [mesoridazine]
logPS(obs) [1, 9]: −1.81 mL/g/s

O=c1[nH]c2ccccc2n1CCCN1CCC(n2c(=O)[nH]c3cc(Cl)ccc32)CC1 [domperidone]
logPS(obs) [4]: −2.79 mL/g/s | logPo^PAMPA: −2.78

Clc1ccc2c(c1)C(N1CCNCC1)=Nc1ccccc1O2 [amoxapine]
logPS(obs) [1, 9]: −1.18 mL/g/s

O=C(CCCN1CCC(O)(c2ccc(Cl)cc2)CC1)c1ccc(F)cc1 [haloperidol]
logPo^PAMPA ([2]; PAMPA intrinsic permeability, ref Avdeef et al. 2006): 0.05

CN1C[C@H](C(=O)N[C@]2(C)O[C@@]3(O)[C@@H]4CCCN4C(=O)[C@H](Cc4ccccc4)N3C2=O)C=C2c3cccc4[nH]cc(c34)C[C@H]21 [ergotamine]
logPS(obs) ([1]; rat, in vivo): −2.06 mL/g/s

C[C@]12CC[C@@H]3c4ccc(O)cc4CC[C@H]3[C@@H]1CC[C@@H]2O [estradiol]
logPo^PAMPA: −3.08

CC(C(=O)O)c1ccc(-c2ccccc2)c(F)c1 (stereo not drawn) [flurbiprofen]
logPo^PAMPA [2, 10]: −1.78 | logPS(obs) [1, 11]: −1.80 mL/g/s

Cc1c(N2C[C@@H](N)C3(CC3)C2)c(F)c(N)c2c(=O)c(C(=O)O)cn(C3CC3)c12 [HSR-903]
logPS(obs) ([1]; rat, 20 mM self-inhibition ref Murata et al. 1999): −3.14 mL/g/s

OCCN1CCN(CCCN2c3ccccc3Sc3ccc(Cl)cc32)CC1 [perphenazine]
logPo^PAMPA: 0.81 | logPS(obs) [1, 5]: −1.27 mL/g/s

OC[C@H]1O[C@@](CO)(O[C@H]2O[C@H](CO)[C@@H](O)[C@H](O)[C@H]2O)[C@@H](O)[C@@H]1O [sucrose]
logPS(obs) [1, 8]: −5.30 mL/g/s

OCCOCCN1CCN(C(c2ccccc2)c2ccc(Cl)cc2)CC1 (stereo not drawn) [hydroxyzine]
logPo^PAMPA: −1.50

CC(=O)CC(c1ccccc1)c1c(O)c2ccccc2oc1=O (stereo not drawn) [warfarin]
logPS(obs) ([1]; rat, in vivo): −1.99 mL/g/s | logPS(obs) ([3]; mouse, in vivo): −2.10 mL/g/s

Oc1ccc2c3c1O[C@H]1c4[nH]c5ccccc5c4C[C@@]4(O)[C@@H](C2)N(CC2CC2)CC[C@]314 [naltrindole]
logPo^PAMPA: −0.94 | logPS(obs) ([3]; mouse, in vivo): −1.98 mL/g/s

CCCN1C[C@H](CSC)C[C@@H]2c3cccc4[nH]cc(c34)C[C@H]21 [pergolide]
logPS(obs) [1, 9]: −1.00 mL/g/s

CCC(=O)C(CC(C)N(C)C)(c1ccccc1)c1ccccc1 (stereo not drawn) [methadone]
logPo^PAMPA: 0.08

CCC1(C)CC(=O)NC1=O (stereo not drawn) [ethosuximide]
logPS(obs) [1, 9]: −2.47 mL/g/s

CC(C)c1nc(CN(C)C(=O)N[C@H](C(=O)N[C@@H](Cc2ccccc2)C[C@H](O)[C@H](Cc2ccccc2)NC(=O)OCc2cncs2)C(C)C)cs1 [ritonavir]
logPS(obs) [4]: −2.59 mL/g/s | Pgp Mutant Kin [4]: 15 mL/100g/min | logPo^PAMPA: −1.68

CCCC(C)(COC(N)=O)COC(N)=O [meprobamate]
logPS(obs) [1, 9]: −3.09 mL/g/s

CCC12CCN(CC3(O)CC3)C(Cc3ccc(O)cc31)C2(C)C (stereo not drawn) [bremazocine]
logPo^PAMPA: −1.49 | logPS(obs) ([3]; mouse, in vivo): −1.89 mL/g/s

CNCCCC12CCC(c3ccccc31)c1ccccc12 [maprotiline]
logPo^PAMPA [2, 10]: 1.99 | logPS(obs) [1, 5]: −1.37 mL/g/s

CN(C)CCc1c[nH]c2ccc(Cn3cncn3)cc12 [rizatriptan]
logPS(obs) [1, 9]: −3.76 mL/g/s

O=C1Cc2cc(CCN3CCN(c4nsc5ccccc45)CC3)c(Cl)cc2N1 [ziprasidone]
logPS(obs) [1, 9]: −1.73 mL/g/s

Cc1ncc2n1-c1ccc(Cl)cc1C(c1ccccc1F)=NC2 [midazolam]
logPS(obs) ([1]; rat, in vivo): −1.17 mL/g/s

N[C@@H](Cc1ccccc1)C(=O)O [L-phenylalanine]
logPo^PAMPA: −5.36 | logPS(obs) [1, 7]: −3.74 mL/g/s

COc1ccc2c(c1)c(CC(=O)O)c(C)n2C(=O)c1ccc(Cl)cc1 [indomethacin]
logPo^PAMPA ([2]; PAMPA intrinsic permeability, ref Avdeef et al. 2004, Ruell et al. 2004): −1.65 | logPS(obs) [1, 11]: −2.19 mL/g/s

COc1cc2nc(N3CCN(C(=O)c4ccco4)CC3)nc(N)c2cc1OC [prazosin]
logPo^PAMPA [2, 10]: −2.58

O=c1n(CCCN2CCN(c3cccc(Cl)c3)CC2)nc2ccccn12 [trazodone]
logPS(obs) [1, 9]: −1.47 mL/g/s

CNS(=O)(=O)Cc1ccc2[nH]cc(CCN(C)C)c2c1 [sumatriptan]
logPo^PAMPA ([2]; PAMPA intrinsic permeability, ref Avdeef 2005): −4.18 | logPS(obs) [1, 5]: −4.60 mL/g/s

CN1CCN2c3ncccc3Cc3ccccc3C2C1 (stereo not drawn) [mirtazapine]
logPS(obs) [1, 9]: −1.39 mL/g/s

OCCOCCN1CCN(C2=Nc3ccccc3Sc3ccccc32)CC1 [quetiapine]
logPo^PAMPA: −1.85 | logPS(obs) [1, 5]: −1.33 mL/g/s

CC(C)C[C@H](N)C(=O)O [L-leucine]
logPS(obs) [1, 12]: −4.08 mL/g/s

CC(C)[C@H](NC(=O)[C@H](CCC(=O)O)NC(=O)[C@H](Cc1ccccc1)NC(=O)[C@@H](C)NC(=O)[C@@H](N)Cc1ccc(O)cc1)C(=O)N[C@H](C(=O)NCC(N)=O)C(C)C [deltorphin II]
logPo^PAMPA: −6.37 | logPS(obs) ([3]; mouse, in vivo): −4.36 mL/g/s

Cc1nc2n(c(=O)c1CCN1CCC(c3noc4cc(F)ccc34)CC1)CCCC2 [risperidone]
logPo^PAMPA: −2.01

O=C1C[C@@H](c2ccc(O)cc2)Oc2cc(O)cc(O)c21 [naringenin]
logPo^PAMPA: −3.71 | logPS(obs) [1, 6]: −2.60 mL/g/s

OC[C@@H](O)[C@@H](O)[C@H](O)[C@H](O)CO [mannitol]
logPS(obs) [1, 8]: −5.01 mL/g/s

OC[C@@H](O)[C@@H](O)CO [erythritol]
logPS(obs) [1, 8]: −4.57 mL/g/s

COc1cc2c(c(OC)c1OC)-c1ccc(OC)c(=O)cc1[C@@H](NC(C)=O)CC2 [colchicine]
logPo^PAMPA: −5.40 | logPS(obs) ([1]; rat, in vivo): −3.24 mL/g/s

NNCCc1ccccc1 [phenelzine]
logPS(obs) [1, 9]: −2.67 mL/g/s

C[C@]12CC[C@H]3[C@@H](CCC4=CC(=O)CC[C@@]43C)[C@@H]1CC[C@@H]2O [testosterone]
logPo^PAMPA: −2.83

Nc1nnc(-c2cccc(Cl)c2Cl)c(N)n1 [lamotrigine]
logPS(obs) [1, 9]: −2.67 mL/g/s

O=C(O)c1ccccc1O [salicylic acid]
logPo^PAMPA ([2]; PAMPA intrinsic permeability, ref Ruell et al. 2003): −2.64

Nc1c(O)cccc1C(=O)CC(N)C(=O)O (stereo not drawn) [3-hydroxykynurenine]
logPS(obs) ([1]; rat, Kd (nonsaturable component) ref Fukui et al. 1991): −4.49 mL/g/s

COc1ccc([C@@H]2Sc3ccccc3N(CCN(C)C)C(=O)[C@@H]2OC(C)=O)cc1 [diltiazem]
logPo^PAMPA ([2]; PAMPA intrinsic permeability, ref Avdeef et al. 2005): −1.33

CNCC[C@@H](Oc1ccccc1C)c1ccccc1 [atomoxetine]
logPS(obs) [1, 9]: −1.39 mL/g/s

CC(C)[C@H](N)C(=O)O [L-valine]
logPS(obs) [1, 12]: −4.41 mL/g/s

CSc1ccc2c(c1)N(CCC1CCCCN1C)c1ccccc1S2 (stereo not drawn) [thioridazine]
logPo^PAMPA: 1.81 | logPS(obs) [1, 5]: −1.37 mL/g/s

NC1(C(=O)O)CCCCC1 [1-aminocyclohexanecarboxylic acid]
logPS(obs) ([1]; rat, Kd (nonsaturable component) ref Aoyagi et al. 1988): −4.00 mL/g/s

CN(C)C(=O)C(CCN1CCC(O)(c2ccc(Cl)cc2)CC1)(c1ccccc1)c1ccccc1 [loperamide]
logPo^PAMPA: 0.15

CN1CCN(CCCN2c3ccccc3Sc3ccc(C(F)(F)F)cc32)CC1 [trifluoperazine]
logPS(obs) [1, 9]: −1.88 mL/g/s

OCCO [ethylene glycol]
logPS(obs) ([1]; rat, in vivo): −2.99 mL/g/s

CC[C@]1(O)C[C@@H]2CN(CCc3c([nH]c4ccccc34)[C@@](C(=O)OC)(c3cc4c(cc3OC)N(C)[C@H]3[C@@](O)(C(=O)OC)[C@H](OC(C)=O)[C@]5(CC)C=CCN6CC[C@]43[C@@H]65)C2)C1 [vinblastine]
logPo^PAMPA: −0.42 | logPS(obs) ([1]; rat ref Greig et al. 1990): −3.27 mL/g/s | logPS(obs) ([1]; rat, PSC833 ref Cisternino et al. 2003): −3.36 mL/g/s | logPS(obs) ([3]; mouse ref Murakami et al. 2000): −3.32 mL/g/s | logPS(obs) ([3]; mouse, GF120918, footnote v ref Cisternino et al. 2004): −3.25 mL/g/s | logPS(obs) ([3]; mouse, mdr1a(−/−)+GF120918 ref Cisternino et al. 2001): −3.12 mL/g/s

Cc1cc(=O)n(-c2ccccc2)n1C [antipyrine]
logPo^PAMPA ([2]; PAMPA): −5.69
